Results reported in article PMC6630214, “Design, Synthesis and Biological Evaluation of 7-Chloro-9H-pyrimido[4,5-b]indole-based Glycogen Synthase Kinase-3β Inhibitors” (Molecules, 2019).

Columns and labels:
JAK3 = target: T1, JAK3 (Homo sapiens, UniProt P52333); assay: JAK3 enzyme-linked immunosorbent assay (ELISA); format: biochemical
T1 sequence (P52333 1-1124): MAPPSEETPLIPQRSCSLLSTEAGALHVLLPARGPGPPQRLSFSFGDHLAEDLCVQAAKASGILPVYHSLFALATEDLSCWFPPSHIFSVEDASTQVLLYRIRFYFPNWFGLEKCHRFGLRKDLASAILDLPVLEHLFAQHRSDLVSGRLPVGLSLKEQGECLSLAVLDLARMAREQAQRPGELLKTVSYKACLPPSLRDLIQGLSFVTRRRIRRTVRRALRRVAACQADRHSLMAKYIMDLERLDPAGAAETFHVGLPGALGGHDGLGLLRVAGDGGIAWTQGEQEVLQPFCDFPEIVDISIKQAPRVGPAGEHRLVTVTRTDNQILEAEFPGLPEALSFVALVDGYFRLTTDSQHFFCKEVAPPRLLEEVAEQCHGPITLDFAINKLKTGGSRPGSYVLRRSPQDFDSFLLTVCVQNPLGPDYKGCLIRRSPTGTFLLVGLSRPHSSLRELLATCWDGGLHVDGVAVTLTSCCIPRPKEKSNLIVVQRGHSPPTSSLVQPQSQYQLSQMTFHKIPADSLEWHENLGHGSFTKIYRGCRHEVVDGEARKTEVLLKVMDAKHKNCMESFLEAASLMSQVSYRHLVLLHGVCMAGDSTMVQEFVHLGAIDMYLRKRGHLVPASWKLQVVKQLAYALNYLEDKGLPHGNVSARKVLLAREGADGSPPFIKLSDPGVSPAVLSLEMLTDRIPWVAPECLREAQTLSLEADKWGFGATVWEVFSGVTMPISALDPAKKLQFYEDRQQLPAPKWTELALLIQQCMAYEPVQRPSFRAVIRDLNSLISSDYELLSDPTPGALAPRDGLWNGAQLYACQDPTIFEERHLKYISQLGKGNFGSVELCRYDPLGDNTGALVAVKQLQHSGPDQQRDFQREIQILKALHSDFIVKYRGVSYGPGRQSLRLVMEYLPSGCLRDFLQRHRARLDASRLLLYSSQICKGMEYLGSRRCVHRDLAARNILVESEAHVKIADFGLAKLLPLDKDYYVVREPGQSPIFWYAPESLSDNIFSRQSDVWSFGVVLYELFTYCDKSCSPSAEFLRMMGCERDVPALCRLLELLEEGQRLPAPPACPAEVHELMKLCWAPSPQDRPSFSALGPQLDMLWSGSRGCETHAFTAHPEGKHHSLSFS
Method: Furthermore, 14b and 24 were examined for their inhibitory activity on the possible off-target JAK3, as this class of GSK-3β inhibitors is derived from the pan-JAK inhibitor tofacitinib.
JAK3 Inhibition by Compounds 14b and 24
Compound 14b and 24 were analyzed for their inhibitory activity on JAK3 in an enzyme -
linked immunosorbent assay (ELISA). Single point measurements at compound
concentrations of 5 µM were conducted .
Table S2. JAK3 inhibition of 14b and 24 in the ELISA.
Cpd. JAK3 inhibition [%] a […]

GSK-3β = GSK-3β (Homo sapiens, UniProt P49841); assay: ADP Glo GSK-3β kinase assay; format: biochemical; conditions: for IC50 / GSK-3β inhibition (in words): ADP Glo kinase assay; for IC50: n = 2 (14b n = 5, 24 n = 3), read-out: IC50 (µM) Mean ± SEM GSK-3β; for GSK-3β inhibition (in words): hit 1 from kinome-wide screening
Method: To extend the biological profile of this novel class of 7-chloro-9H-pyrimido[4,5-b]indole-based GSK-3β inhibitors, we tested the lead compound 14b for its ATP competition in our ADP Glo assay system.
ATP Binding Competition of Compound 14b
Compound 14b was analyzed for its competition with ATP in an ADP Glo GSK-3β assay. To
this end, a dilution series of 14b was incubated with 25 µM, 100 µM and 500 µM of ATP and
corresponding IC50 values were determined. Results and inhibition curves are listed in
Table S1. IC50 values for compound 14b in the ATP binding competition experiment.
ATP concentration [µM] GSK-3β
a IC50 values were determined in an ADP Glo kinase assay , n = 1; b n = 5.
Figure S3. Inhibition curves of compound 14b in the presence of 100 µM and 500 µM ATP.
(1 picture or pasted object on this page, not shown here)

[1] = Metabolic stability in human liver microsomes (HLM); format: in vitro ADME; conditions: after an incubation time of 120 min, substrate 100 µM
Method: In a HLM stability assay, 14b and 24 were intensively degraded during a timeframe of 120 min (25% and 8% remaining parent compound at the endpoint of the experiment, respectively; for details see Tables S3 and S4 as well as Figures S4 and S5, Supplementary Materials). The corresponding unsubstituted piperidines were observed as prominent metabolites.
Metabolism in Human Liver Microsomes (HLM) of Compounds 14b and 24
Microsomes from liver, pooled from human (male and female) (Lot: SLBQ7487V) were purchased from Merck (Schnelldorf, Germany). The substrate (compounds 14b and 24, respectively) (100 µM), an NADPH-regenerating syst em (5 mM Glucose-6-phosphate, 5 U/mL Glucose -6-phosphate dehydrogenase and 1 mM NADP +) and 4 mM MgCl2⋅6 H2O in 0.1 M Tris buffer (pH 7.4) were preincubated for 5 min at 37°C and 750 rpm on a shaker. The reaction was started by the addition of HLM and then split into aliquots (50 µL). The reaction was quenched at […] time points (0, 10, 20, 30, 60 and 120 min) by addition of 100 µL internal standard (30 µM in MeCN). The samples were vortexed for 30 s and centrifuged (19,800 relative centrifugal force/4°C/10 min). The supernatant was directly used for LC-MS analysis (see below). All incubations were conducted in triplicates. […]
The metabolite formation was analyzed with an Alliance 2695 Separations Module (Waters GmbH, Eschborn). […]

GSK-3β, sequence (P49841 whole entry): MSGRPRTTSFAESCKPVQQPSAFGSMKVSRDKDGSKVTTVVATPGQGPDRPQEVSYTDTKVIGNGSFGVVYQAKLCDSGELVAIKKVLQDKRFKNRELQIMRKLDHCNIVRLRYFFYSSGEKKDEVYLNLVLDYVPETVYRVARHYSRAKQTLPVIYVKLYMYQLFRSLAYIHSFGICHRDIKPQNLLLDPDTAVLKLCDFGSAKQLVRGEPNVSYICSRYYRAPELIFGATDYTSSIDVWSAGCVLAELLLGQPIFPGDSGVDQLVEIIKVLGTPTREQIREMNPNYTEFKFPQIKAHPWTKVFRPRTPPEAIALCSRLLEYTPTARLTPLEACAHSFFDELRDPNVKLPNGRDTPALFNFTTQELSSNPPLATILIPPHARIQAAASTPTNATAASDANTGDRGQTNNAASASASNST

For `N#CCCN1CC[C@@H]2CCN(c3ncnc4[nH]c5cc(Cl)ccc5c34)[C@@H]2C1` (racemic) [Compound 24, 3-(3aRS,7aSR)-(1-(7-Chloro-9H-pyrimido[4,5-b]indol-4-yl)octahydro-6H-pyrrolo[2,3-c]pyridin-6-yl)-propanenitrile], the “inhibition of JAK3 (in words)” value (JAK3; ELISA) was “no significant inhibition”, the inhibition at 5 µM (JAK3; single point measurements at compound concentrations of 5 µM, n = 3) was 31.8 ± 3.8% and the IC50 (GSK-3β) was 0.13 ± 0.008 µM. The “increase in potency on GSK-3β” value (GSK-3β; compared to unrigidized counterpart 14b) was 6 fold and the “Metabolic stability [%], remaining parent compound” value [1] was 8%.
In the case of `C[C@@H]1CCN(C(=O)CC#N)C[C@@H]1N(C)c1ncnc2[nH]c3cc(Cl)ccc3c12` [Compound 1, 3-((3R,4R)-3-((7-Chloro-9H-pyrimido[4,5-b]indol-4-yl)(methyl)amino)-4-methylpiperidin-1-yl)-3-oxopropanenitrile], the “GSK-3β inhibition (in words)” value (GSK-3β) is reported as “single-digit micromolar range”.
Molecule `CN(c1ncnc2[nH]c3cc(Cl)ccc3c12)C1CCCN(C(=O)CC#N)C1` (stereo not drawn) [Compound 14a, 3-(3-((7-Chloro-9H-pyrimido[4,5-b]indol-4-yl)(methyl)amino)piperidin-1-yl)-3-oxopropanenitrile] has an IC50 (GSK-3β) of 1.86 ± 0.113 µM.
In the case of `CN(c1ncnc2[nH]c3cc(Cl)ccc3c12)C1CCCN(CCC(N)=O)C1` (stereo not drawn) [Compound 14c, 3-(3-((7-Chloro-9H-pyrimido[4,5-b]indol-4-yl)(methyl)amino)piperidin-1-yl)propanamide], the IC50 (GSK-3β) is reported as greater than 10 µM and the “GSK-3β inhibition (in words)” value (GSK-3β) is reported as “dramatic decrease in activity”.
For `COC(=O)CCN1CCCC(N(C)c2ncnc3[nH]c4cc(Cl)ccc4c23)C1` (stereo not drawn) [Compound 14d, Methyl-3-(3-((7-chloro-9H-pyrimido[4,5-b]indol-4-yl)(methyl)amino)piperidin-1-yl)propanoate], the IC50 (GSK-3β) was greater than 10 µM and the “GSK-3β inhibition (in words)” value (GSK-3β) was “dramatic decrease in activity”.
With `CCCN1CCCC(N(C)c2ncnc3[nH]c4cc(Cl)ccc4c23)C1` (stereo not drawn) [Compound 14e, 7-Chloro-N-methyl-N-(1-propylpiperidin-3-yl)-9H-pyrimido[4,5-b]indol-4-amine] the IC50 (GSK-3β) was greater than 10 µM and the “GSK-3β inhibition (in words)” value (GSK-3β) was “severe decrease in activity”.
In the case of `CC(C)N1CCCC(N(C)c2ncnc3[nH]c4cc(Cl)ccc4c23)C1` (stereo not drawn) [Compound 14f, 7-Chloro-N-(1-isopropylpiperidin-3-yl)-N-methyl-9H-pyrimido[4,5-b]indol-4-amine], the IC50 (GSK-3β) is reported as greater than 10 µM and the “GSK-3β inhibition (in words)” value (GSK-3β) is reported as “severe decrease in activity”.
With `CN(c1ncnc2[nH]c3cc(Cl)ccc3c12)C1CCCN(C2CCCC2)C1` (stereo not drawn) [Compound 14g, 7-Chloro-N-(1-cyclopentylpiperidin-3-yl)-N-methyl-9H-pyrimido[4,5-b]indol-4-amine] the IC50 (GSK-3β) was greater than 10 µM and the “GSK-3β inhibition (in words)” value (GSK-3β) was “severe decrease in activity”.
For `CN(c1ncnc2[nH]c3cc(Cl)ccc3c12)C1CCCN(Cc2ccco2)C1` (stereo not drawn) [Compound 14h, 7-Chloro-N-(1-(furan-2-ylmethyl)piperidin-3-yl)-N-methyl-9H-pyrimido[4,5-b]indol-4-amine], the IC50 (GSK-3β) was greater than 10 µM.
For `CN(c1ncnc2[nH]c3cc(Cl)ccc3c12)C1CCCN(Cc2ccncc2)C1` (stereo not drawn) [Compound 14i, 7-Chloro-N-methyl-N-(1-(pyridin-4-ylmethyl)piperidin-3-yl)-9H-pyrimido[4,5-b]indol-4-amine], the IC50 (GSK-3β) was greater than 10 µM.
Work on `CN(c1ncnc2[nH]c3cc(Cl)ccc3c12)C1CCCN(Cc2cccc(C#N)c2)C1` (stereo not drawn) [Compound 14j, 3-((3-((7-Chloro-9H-pyrimido[4,5-b]indol-4-yl)(methyl)amino)piperidin-1-yl)methyl)benzonitrile] yielded an IC50 (GSK-3β) greater than 10 µM.
For `CN(c1ncnc2[nH]c3cc(Cl)ccc3c12)C1CCCN(CCC(F)(F)F)C1` (stereo not drawn) [Compound 14k, 7-Chloro-N-methyl-N-(1-(3,3,3-trifluoropropyl)piperidin-3-yl)-9H-pyrimido[4,5-b]indol-4-amine], the IC50 (GSK-3β) was greater than 10 µM and the “GSK-3β inhibition (in words)” value (GSK-3β) was “inactive”.
With `CN(c1ncnc2[nH]c3cc(Cl)ccc3c12)C1CCCN(CC#N)C1` (stereo not drawn) [Compound 14l, 2-(3-((7-Chloro-9H-pyrimido[4,5-b]indol-4-yl)(methyl)amino)piperidin-1-yl)acetonitrile] the IC50 (GSK-3β) was greater than 10 µM and the “GSK-3β inhibition (in words)” value (GSK-3β) was “inactive”.
For `CN(c1ncnc2[nH]c3cc(Cl)ccc3c12)C1CCCN(CC2CC2)C1` (stereo not drawn) [Compound 14m, 7-Chloro-N-(1-(cyclopropylmethyl)piperidin-3-yl)-N-methyl-9H-pyrimido[4,5-b]indol-4-amine], the IC50 (GSK-3β) was greater than 10 µM and the “GSK-3β inhibition (in words)” value (GSK-3β) was “severe decrease in activity”.
In the case of `CN(C)CCCN1CCCC(N(C)c2ncnc3[nH]c4cc(Cl)ccc4c23)C1` (stereo not drawn) [Compound 14n, 7-Chloro-N-(1-(3-(dimethylamino)propyl)piperidin-3-yl)-N-methyl-9H-pyrimido[4,5-b]indol-4-amine], the IC50 (GSK-3β) is reported as 3.56 ± 0.664 µM and the “GSK-3β inhibition (in words)” value (GSK-3β) is reported as “remarkably reduced GSK-3β inhibition”.
For `CN(c1ncnc2c1c1ccc(Cl)cc1n2C)C1CCCN(CCC#N)C1` (stereo not drawn) [Compound 14o, 3-(3-((7-Chloro-9-methyl-9H-pyrimido[4,5-b]indol-4-yl)(methyl)amino)piperidin-1-yl)propanenitrile], the IC50 (GSK-3β) was greater than 10 µM and the “GSK-3β inhibition (in words)” value (GSK-3β) was “inactive”.
Work on `CN(c1ncnc2[nH]c3cc(Cl)ccc3c12)C1CCN(CCC#N)C1` (stereo not drawn) [Compound 15, 3-(3-((7-Chloro-9H-pyrimido[4,5-b]indol-4-yl)(methyl)amino)pyrrolidin-1-yl)propanenitrile] yielded an IC50 (GSK-3β) of 7.02 ± 1.08 µM.
Work on `CN(c1ncnc2[nH]c3cc(Cl)ccc3c12)C1CCCN(CCC#N)CC1` (stereo not drawn) [Compound 16, 3-(4-((7-Chloro-9H-pyrimido[4,5-b]indol-4-yl)(methyl)amino)azepan-1-yl)propanenitrile] yielded an IC50 (GSK-3β) of 1.54 ± 0.284 µM.
`CN(c1ncnc2[nH]c3cc(Cl)ccc3c12)C1CCN(CCC#N)CC1` [Compound 17, 3-(4-((7-Chloro-9H-pyrimido[4,5-b]indol-4-yl)(methyl)amino)piperidin-1-yl)propanenitrile] gave an IC50 (GSK-3β) of 13.3 ± 4.39 µM.
